The values that follow come from ChEMBL document CHEMBL4507319 (2021).

Experiment [1] deals with Mitogen-activated protein kinase 3 (Homo sapiens) (UniProt P27361). The note with it: Compound concentration 1000.0 nM.
For experiment [2], the target named is Aurora kinase C (Homo sapiens) (UniProt Q9UQB9). The note with it: Compound concentration 1000.0 nM.
In experiment [3] the target is Serine/threonine-protein kinase N1 (Homo sapiens) (UniProt Q16512). The conditions noted are these: Compound concentration 1000.0 nM.
In experiment [4] the test system is Epidermal growth factor receptor (Homo sapiens), P00533 [L858R]. The note with it: Compound concentration 1000.0 nM.
The target of experiment [5] is Phosphatidylinositol 4-phosphate 3-kinase C2 domain-containing subunit beta (Homo sapiens) (UniProt O00750). The note with it: Compound concentration 1000.0 nM.
Chain of Phosphatidylinositol 4-phosphate 3-kinase C2 domain-containing subunit beta (Homo sapiens) (O00750 whole entry, the tested form may be a part): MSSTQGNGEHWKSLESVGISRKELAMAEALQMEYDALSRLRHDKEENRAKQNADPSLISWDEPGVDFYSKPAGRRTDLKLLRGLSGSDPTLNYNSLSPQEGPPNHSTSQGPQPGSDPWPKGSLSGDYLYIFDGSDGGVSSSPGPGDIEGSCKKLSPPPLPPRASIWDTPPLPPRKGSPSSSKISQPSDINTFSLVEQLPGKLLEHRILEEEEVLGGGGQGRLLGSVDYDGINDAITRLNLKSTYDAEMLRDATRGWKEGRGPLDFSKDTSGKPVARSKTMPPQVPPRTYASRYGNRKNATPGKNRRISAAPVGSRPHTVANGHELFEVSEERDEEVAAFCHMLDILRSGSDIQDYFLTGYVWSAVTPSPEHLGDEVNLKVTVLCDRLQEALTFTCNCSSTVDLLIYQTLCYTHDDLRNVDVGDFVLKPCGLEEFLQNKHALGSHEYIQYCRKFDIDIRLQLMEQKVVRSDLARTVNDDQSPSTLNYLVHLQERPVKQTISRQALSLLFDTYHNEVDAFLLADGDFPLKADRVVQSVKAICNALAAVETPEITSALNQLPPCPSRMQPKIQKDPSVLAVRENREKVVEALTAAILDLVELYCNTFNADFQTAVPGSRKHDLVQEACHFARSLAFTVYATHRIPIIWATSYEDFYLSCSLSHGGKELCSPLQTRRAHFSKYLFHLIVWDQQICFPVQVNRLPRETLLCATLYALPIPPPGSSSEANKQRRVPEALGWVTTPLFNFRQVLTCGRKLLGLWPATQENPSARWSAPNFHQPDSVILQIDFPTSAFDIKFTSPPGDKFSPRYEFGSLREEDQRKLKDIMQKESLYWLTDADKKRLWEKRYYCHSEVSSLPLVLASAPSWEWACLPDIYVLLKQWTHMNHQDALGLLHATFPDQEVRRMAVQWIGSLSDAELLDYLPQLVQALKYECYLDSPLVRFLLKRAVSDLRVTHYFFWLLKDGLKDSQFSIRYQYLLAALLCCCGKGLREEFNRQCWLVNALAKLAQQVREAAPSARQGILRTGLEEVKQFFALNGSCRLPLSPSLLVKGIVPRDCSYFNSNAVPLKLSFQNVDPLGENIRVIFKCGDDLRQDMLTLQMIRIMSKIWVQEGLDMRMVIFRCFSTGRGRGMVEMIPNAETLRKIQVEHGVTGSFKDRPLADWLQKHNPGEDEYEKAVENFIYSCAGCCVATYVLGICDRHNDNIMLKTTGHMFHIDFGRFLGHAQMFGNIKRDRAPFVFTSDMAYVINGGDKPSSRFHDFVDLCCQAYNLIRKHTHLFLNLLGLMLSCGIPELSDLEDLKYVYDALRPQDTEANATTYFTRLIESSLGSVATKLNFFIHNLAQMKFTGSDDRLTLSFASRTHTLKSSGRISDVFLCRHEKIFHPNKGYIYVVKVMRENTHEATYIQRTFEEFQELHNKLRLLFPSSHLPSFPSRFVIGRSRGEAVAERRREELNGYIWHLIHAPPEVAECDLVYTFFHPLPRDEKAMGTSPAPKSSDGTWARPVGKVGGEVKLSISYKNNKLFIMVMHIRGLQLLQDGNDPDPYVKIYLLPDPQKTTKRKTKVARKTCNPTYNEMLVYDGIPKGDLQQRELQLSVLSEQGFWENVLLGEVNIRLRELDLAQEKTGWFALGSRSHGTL
For experiment [6], the target named is High affinity nerve growth factor receptor (Homo sapiens) (UniProt P04629). The conditions noted are these: Compound concentration 1000.0 nM.
Experiment [7] addresses Protein-tyrosine kinase 6 (Homo sapiens) (UniProt Q13882). The conditions noted are these: Compound concentration 1000.0 nM.
For experiment [8], the target named is Homeodomain-interacting protein kinase 2 (Homo sapiens) (UniProt Q9H2X6). The conditions noted are these: Compound concentration 1000.0 nM.
The target in experiment [9] is T1, Serine/threonine-protein kinase 17A (Homo sapiens) (UniProt Q9UEE5).
T1 sequence (whole entry): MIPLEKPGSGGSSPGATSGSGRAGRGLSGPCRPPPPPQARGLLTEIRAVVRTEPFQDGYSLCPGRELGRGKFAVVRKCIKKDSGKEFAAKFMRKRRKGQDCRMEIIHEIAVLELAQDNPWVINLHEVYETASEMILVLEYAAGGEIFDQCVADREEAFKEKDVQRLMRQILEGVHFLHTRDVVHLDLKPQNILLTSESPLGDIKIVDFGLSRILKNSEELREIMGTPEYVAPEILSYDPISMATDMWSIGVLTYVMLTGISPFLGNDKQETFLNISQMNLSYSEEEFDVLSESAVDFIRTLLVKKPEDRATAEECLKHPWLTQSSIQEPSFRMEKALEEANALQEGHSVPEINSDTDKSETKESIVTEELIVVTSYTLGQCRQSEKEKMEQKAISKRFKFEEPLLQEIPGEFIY
The conditions noted are these: Compound concentration 1000.0 nM.

Experiment [10] has as its target Ephrin type-A receptor 2 (Homo sapiens) (UniProt P29317). The conditions noted are these: Compound concentration 1000.0 nM.
Experiment [11] has as its target Alpha-1D adrenergic receptor (Homo sapiens) (UniProt P25100). The conditions noted are these: Compound concentration 10.0 uM.
The target in experiment [12] is Ribosomal protein S6 kinase alpha-2 (Homo sapiens, UniProt Q15349). The conditions noted are these: Compound concentration 1000.0 nM.
Chain of Ribosomal protein S6 kinase alpha-2 (Q15349 whole entry): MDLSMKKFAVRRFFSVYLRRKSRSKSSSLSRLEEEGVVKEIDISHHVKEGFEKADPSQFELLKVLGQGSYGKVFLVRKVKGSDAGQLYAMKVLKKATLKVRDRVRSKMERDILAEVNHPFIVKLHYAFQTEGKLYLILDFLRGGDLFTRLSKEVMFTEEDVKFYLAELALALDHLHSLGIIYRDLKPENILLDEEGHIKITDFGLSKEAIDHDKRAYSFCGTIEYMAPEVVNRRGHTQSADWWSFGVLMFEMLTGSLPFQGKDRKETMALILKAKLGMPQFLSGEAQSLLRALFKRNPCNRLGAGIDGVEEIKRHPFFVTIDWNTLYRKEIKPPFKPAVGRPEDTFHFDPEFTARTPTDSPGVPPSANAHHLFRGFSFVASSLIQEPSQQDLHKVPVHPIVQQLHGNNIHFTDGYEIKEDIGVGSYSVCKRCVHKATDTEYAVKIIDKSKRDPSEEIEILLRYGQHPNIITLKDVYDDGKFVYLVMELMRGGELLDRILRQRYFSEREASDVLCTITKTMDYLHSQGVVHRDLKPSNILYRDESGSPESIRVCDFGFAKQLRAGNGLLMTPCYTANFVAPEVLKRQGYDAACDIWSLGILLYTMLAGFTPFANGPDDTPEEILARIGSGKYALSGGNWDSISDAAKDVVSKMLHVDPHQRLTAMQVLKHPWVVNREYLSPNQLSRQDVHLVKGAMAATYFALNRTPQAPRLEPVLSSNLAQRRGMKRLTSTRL
Experiment [13] deals with Epidermal growth factor receptor (Homo sapiens), P00533 [L861Q]. The note with it: Compound concentration 1000.0 nM.
For experiment [14], the target named is Serine/threonine-protein kinase 38-like (Homo sapiens) (UniProt Q9Y2H1). The conditions noted are these: Compound concentration 1000.0 nM.
Experiment [15] deals with Protein kinase C eta type (Homo sapiens) (UniProt P24723). The note with it: Compound concentration 1000.0 nM.
Experiment [16] addresses Casein kinase I isoform delta (Homo sapiens) (UniProt P48730). The note with it: Compound concentration 1000.0 nM.
Experiment [17] has as its target T2, Inhibitor of nuclear factor kappa-B kinase subunit epsilon (Homo sapiens) (UniProt Q14164).
T2 sequence (whole entry): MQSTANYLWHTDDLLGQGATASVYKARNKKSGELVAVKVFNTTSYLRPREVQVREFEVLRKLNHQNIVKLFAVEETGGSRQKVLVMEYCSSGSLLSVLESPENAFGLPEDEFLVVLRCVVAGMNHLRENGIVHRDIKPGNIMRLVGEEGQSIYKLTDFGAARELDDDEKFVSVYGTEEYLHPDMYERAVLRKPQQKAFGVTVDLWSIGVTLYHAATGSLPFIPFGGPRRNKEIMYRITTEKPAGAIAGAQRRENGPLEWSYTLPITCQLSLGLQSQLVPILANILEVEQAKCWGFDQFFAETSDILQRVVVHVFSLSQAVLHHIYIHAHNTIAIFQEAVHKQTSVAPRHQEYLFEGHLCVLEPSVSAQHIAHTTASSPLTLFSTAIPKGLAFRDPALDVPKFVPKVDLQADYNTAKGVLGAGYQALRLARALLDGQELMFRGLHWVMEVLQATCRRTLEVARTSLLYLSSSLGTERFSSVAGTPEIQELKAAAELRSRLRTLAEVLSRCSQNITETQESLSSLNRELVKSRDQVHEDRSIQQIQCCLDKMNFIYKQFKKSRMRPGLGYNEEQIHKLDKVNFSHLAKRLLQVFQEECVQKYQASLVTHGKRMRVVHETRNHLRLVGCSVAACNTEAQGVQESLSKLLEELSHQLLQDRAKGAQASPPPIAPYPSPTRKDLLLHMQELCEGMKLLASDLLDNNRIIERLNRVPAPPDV
The conditions noted are these: Compound concentration 1000.0 nM.

Experiment [18] relates to Tyrosine-protein kinase ABL1 (Homo sapiens), P00519 [Q252H]. The conditions noted are these: Compound concentration 1000.0 nM.
For experiment [19], the target named is Cyclin-dependent kinase-like 2 (Homo sapiens) (UniProt Q92772). The note with it: Compound concentration 1000.0 nM.
Chain of Cyclin-dependent kinase-like 2 (Homo sapiens) (Q92772 whole entry): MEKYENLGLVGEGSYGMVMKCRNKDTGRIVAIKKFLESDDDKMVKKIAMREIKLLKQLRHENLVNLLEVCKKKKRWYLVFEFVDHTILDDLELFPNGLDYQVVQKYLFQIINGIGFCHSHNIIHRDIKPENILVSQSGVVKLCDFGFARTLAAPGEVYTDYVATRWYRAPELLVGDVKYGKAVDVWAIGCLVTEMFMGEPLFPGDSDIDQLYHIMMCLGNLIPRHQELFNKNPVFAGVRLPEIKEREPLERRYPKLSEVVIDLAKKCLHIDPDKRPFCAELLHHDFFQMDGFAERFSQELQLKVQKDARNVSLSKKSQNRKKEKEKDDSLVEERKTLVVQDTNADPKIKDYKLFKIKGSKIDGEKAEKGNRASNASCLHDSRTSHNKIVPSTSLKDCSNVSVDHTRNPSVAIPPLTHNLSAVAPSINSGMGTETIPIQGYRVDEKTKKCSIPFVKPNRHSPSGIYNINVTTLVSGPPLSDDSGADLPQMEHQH
In experiment [20] the target is T3, Beta-adrenergic receptor kinase 1 (Homo sapiens) (UniProt P25098).
T3 sequence (whole entry): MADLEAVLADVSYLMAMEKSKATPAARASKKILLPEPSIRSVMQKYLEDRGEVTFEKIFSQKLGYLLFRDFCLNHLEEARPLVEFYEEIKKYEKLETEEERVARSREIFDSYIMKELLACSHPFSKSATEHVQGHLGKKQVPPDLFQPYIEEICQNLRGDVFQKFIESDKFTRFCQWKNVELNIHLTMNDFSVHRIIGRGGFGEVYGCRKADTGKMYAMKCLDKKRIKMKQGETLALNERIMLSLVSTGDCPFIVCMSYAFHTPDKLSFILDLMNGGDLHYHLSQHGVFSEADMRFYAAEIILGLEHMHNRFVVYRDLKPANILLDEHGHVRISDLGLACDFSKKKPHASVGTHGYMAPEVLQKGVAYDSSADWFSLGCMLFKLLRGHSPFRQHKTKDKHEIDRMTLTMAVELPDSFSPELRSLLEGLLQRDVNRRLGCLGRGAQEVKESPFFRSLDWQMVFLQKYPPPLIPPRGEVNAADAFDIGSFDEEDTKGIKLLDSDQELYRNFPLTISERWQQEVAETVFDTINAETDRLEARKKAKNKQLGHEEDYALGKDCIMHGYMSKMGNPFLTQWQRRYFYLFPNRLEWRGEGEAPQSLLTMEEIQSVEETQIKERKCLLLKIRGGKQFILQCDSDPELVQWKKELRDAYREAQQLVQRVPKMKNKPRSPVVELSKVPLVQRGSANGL
The conditions noted are these: Compound concentration 1000.0 nM.

SMILES strings stand for the structures.

Chain of Casein kinase I isoform delta (Homo sapiens) (P48730 whole entry, looked up, canonical isoform): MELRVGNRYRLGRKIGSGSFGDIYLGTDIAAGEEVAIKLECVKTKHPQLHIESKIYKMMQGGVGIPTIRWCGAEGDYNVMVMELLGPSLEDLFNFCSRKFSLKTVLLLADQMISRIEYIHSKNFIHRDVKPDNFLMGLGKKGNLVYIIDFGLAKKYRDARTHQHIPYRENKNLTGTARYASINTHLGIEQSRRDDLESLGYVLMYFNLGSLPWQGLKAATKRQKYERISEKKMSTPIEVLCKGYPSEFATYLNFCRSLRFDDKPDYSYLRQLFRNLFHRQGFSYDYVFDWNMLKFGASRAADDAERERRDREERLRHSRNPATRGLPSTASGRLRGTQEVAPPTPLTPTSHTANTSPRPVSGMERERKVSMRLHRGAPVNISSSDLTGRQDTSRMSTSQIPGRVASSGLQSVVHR
Chain of Mitogen-activated protein kinase 3 (Homo sapiens) (P27361 whole entry): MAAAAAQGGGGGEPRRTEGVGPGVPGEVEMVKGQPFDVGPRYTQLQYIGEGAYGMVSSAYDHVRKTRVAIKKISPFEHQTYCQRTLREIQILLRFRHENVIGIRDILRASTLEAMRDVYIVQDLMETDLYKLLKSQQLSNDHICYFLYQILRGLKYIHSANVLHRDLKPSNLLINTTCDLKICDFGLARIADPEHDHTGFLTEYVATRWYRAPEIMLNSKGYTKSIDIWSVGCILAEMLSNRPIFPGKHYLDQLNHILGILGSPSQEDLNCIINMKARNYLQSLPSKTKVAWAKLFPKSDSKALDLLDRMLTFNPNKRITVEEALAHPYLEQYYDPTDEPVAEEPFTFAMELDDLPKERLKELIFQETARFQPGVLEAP
Chain of Ephrin type-A receptor 2 (Homo sapiens) (P29317 whole entry): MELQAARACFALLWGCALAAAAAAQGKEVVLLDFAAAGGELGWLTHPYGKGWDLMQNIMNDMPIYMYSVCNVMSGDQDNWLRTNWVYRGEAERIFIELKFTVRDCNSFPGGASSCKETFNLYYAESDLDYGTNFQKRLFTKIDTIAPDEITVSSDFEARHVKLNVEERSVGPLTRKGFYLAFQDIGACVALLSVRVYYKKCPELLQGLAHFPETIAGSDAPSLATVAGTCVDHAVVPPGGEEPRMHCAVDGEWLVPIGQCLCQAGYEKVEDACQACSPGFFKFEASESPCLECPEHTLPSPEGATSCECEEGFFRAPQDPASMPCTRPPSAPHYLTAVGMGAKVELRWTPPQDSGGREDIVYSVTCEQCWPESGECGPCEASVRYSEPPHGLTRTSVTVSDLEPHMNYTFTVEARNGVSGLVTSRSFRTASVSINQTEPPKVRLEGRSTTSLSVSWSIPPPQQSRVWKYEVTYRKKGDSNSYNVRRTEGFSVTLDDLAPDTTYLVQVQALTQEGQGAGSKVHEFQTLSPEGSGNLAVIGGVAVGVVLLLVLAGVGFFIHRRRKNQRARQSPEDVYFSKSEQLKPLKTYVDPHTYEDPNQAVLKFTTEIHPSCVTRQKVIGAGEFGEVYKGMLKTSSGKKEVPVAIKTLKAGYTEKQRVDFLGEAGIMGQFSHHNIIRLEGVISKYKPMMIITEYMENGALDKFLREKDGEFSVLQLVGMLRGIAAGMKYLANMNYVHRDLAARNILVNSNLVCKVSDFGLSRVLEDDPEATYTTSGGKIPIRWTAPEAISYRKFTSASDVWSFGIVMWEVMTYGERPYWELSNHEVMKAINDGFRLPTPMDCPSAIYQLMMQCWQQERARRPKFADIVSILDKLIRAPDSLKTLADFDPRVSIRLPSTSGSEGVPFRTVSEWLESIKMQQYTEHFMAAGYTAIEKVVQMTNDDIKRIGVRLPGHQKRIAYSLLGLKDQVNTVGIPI
Chain of Aurora kinase C (Homo sapiens) (Q9UQB9 whole entry): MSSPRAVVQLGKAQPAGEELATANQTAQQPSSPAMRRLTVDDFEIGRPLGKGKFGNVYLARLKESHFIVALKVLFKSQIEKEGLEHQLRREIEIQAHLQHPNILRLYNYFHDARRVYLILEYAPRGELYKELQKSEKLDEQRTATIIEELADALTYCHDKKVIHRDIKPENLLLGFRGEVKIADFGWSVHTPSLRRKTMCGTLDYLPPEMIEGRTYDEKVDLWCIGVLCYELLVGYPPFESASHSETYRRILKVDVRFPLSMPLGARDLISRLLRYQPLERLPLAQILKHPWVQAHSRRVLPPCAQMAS

With `CC1=C(C#N)C(c2ccc3c(c2)c(NC(=O)c2ccccc2C)nn3C)C(C#N)=C(C)N1` [BAY-974], the residual activity in [1] was 94%; in [2], 97%; in [3] it was 78%; in [4], 80%; in [5], 76%; in [6] it was 77%. The residual activity in experiment [7] was 100%; in [8] it was 73%; in experiment [9] it was 82%; in experiment [10] it was 82%; in experiment [12], 83%; in experiment [13] it was 69%. The residual activity in experiment [14] was 98%; in experiment [15], 94%; in experiment [16], 89%; in experiment [17], 100%; in [18], 100%; in experiment [19], 100%. The residual activity in [20] is 91%. Further, the inhibition in experiment [11] is 4.71%.

`CCc1ccccc1C(=O)Nc1n[nH]c2c(C)c(F)c(C3C(C#N)=C(C)N(C)C(C)=C3C#N)cc12` [BAY-3827]: the residual activity was 95% in experiment [1]; 29% in [2]; 100% in experiment [3]; 93% in experiment [4]; 100% in experiment [5]; 97% in [6]. Also, the residual activity in experiment [7] was 100%; in [8], 100%; in experiment [9], 89%; in experiment [10], 61%; in experiment [12], 0%; in experiment [13], 43%. Further, the residual activity was 82% in experiment [14]; 32% in experiment [15]; 100% in [16]; 68% in experiment [17]; 82% in experiment [18]; 94% in experiment [19]. The residual activity in experiment [20] was 100%. In experiment [11], the inhibition was 2.75%.

As a reminder, the inhibition is the relative decrease from the control value, in per cent.
